SMILES strings stand for the structures. Bounds are passed on as bounds.

Here are results for five compounds from patent US4469686A, “Substituted phosphinic acids” (priority 1980, dated 1984).

Series [1] can be described thus: Test for catalytic dismutation of superoxide. The class given is biochemical. The conditions noted are these: test compound: copper glycine ratio of 4:1; read-out: Catalysis of superoxide dismutation, I50. An excerpt:
(A) Test for catalytic dismutation of superoxide:
This test is relevant to degenerative joint disease and inflammation. The method followed is the method of M. YOUNES and U. WESER [Biochem.Biophys.Res.Commun. 1977, 78 (4) 1247-53] using a test compound: copper glycine ratio of 4:1.

Series [2] in a line: Test for cupriuretic activity. The format is in vivo. Conditions: at 1 mM/kg. An excerpt:
(B) Test for cupriuretic activity:
This test is relevant to Wilson's disease. The method followed is the method of K. GIBBS and J. M. WALSHE (Clinical Science and Molecular Medicine, 1977, 53, 317-20).

In a further series the test system is mice. As to the kind of experiment: Acute toxicity studies in mice. The format is in vivo. The conditions noted are these: i.p. As for the experimental part: Acute toxicity studies in mice have shown that the minimum single dose to cause death is >2400 mg/kg i.p. for compound B and ≤400 mg/kg i.p. for DL-penicillamine.

Take `CC(C)(S)C(N)[PH](=O)O` (racemic) [Compound B, DL-(1-Amino-2-mercapto-2-methylpropyl)phosphinic acid]: the IC50 in series [1] worked out at 1200 nM. In addition, the “Cupriuretic activity, % Increase” value in series [2] was determined as 397%. Moreover, in the series with mice, the “minimum single dose to cause death” value is given as more than 2400 mg/kg. As for `CC1(C)NC([PH](=O)O)C(C)(C)S1` (racemic) [Compound D, DL-(2,2,5,5-Tetramethyl-4-thiazolidinyl)phosphinic acid], in series [2], the “Cupriuretic activity, % Increase” value was 308%. With `CC(C)(S)C(N)C(=O)O` (racemic) [DL-penicillamine, reference compound], in the series with mice, the “minimum single dose to cause death” value was not above 400 mg/kg.

For `CC(C)(S)C(N)P(=O)(O)O` (racemic) [Compound A, DL-(1-Amino-2-mercapto-2-methylpropyl)phosphonic acid], in series [1], the IC50 was 1200 nM. Moreover, in series [2], the “Cupriuretic activity, % Increase” value came out at 139%.

Take `CC1(C)NC(P(=O)(O)O)C(C)(C)S1` (racemic) [Compound C, DL-2,2,5,5-Tetramethyl-4-thiazolidinyl)phosphonic acid]: the “Cupriuretic activity, % Increase” value in series [2] is given as 122%.
